Experimental data taken from US20060188903A1, “Implantation serine proteinases” (priority 2001, published 2006).

Columns and labels:
ISP2 mRNA = assay: Uterine ISP2 gene expression by in situ hybridization in hormone- or RU486-treated mice; assay type: in vivo, mouse; conditions: for induction of ISP2 gene expression: after ovariectomy without progesterone maintenance, up to 14 days; for maintenance of ISP2 gene expression: delayed implantation after ovariectomy
Protocol: All surgical procedures were carried out after the mice were anaesthetized with an i.p. injection of Avertin (2% (w/v) tribromoethanol; Aldrich Chemical Co. Milwaukee, Wis.). Ovariectomy was performed by dorsal-lateral incision (Hogan et al., 1994). Ovariectomized mice were allowed at least 1 wk for recovery before the induction of deciduomas. All steroid hormones including RU486 were dissolved in sesame oil and injected s.c. At each stage of the experiment, control mice were used which received only oil (0.1 ml/mouse) injections. The standard regimen for artificial induction of deciduomas (Finn, 1966) was modified to more closely mimic pseudo-pregnancy (Milligan, 1995). Here, the first progesterone treatment was started […] after exposure to oestrogen. This modified regimen consisted of 100 ng oestrogen daily starting on Day 0, and 1 mg progesterone plus 10 ng oestrogen from day three onward. Deciduomas were induced surgically on Day 5 (between 1400-1600 h) by injecting sesame oil (10 μl) into the lumen of one uterine horn from its oviductal tip. Injected and uninjected horns were collected 24, 48 or 72 hours later for histological sectioning and in situ hybridization analysis.
Delayed implantation was induced and maintained by ovariectomising mice on day 3 of pregnancy, followed by administration of progesterone (2 mg/mouse) on days 4 to 6. Subsequently, half these mice were treated with estrogen (25 ng/mouse) on the morning of the seventh day, while the other half received the normal progesterone injection. Mice were sacrificed 24 hours later for analysis by in situ hybridization.
The effect of steroids on uterine development in the absence of blastocysts was examined by ovariectomizing mice and treating them with hormone injections after a two week recovery period. They received injections of either progesterone (1 mg/mouse), estrogen (100 ng/mouse), or a combination of both (10 ng estrogen and 1 mg progesterone/mouse) for three days. Mice were then sacrificed on the morning of the fourth day. To further determine the importance of progesterone on ISP2 gene expression superovulated pregnant and pseudo-pregnant mice (Hogan et al., 1994) were treated with RU486 (400 μg/mouse) on the morning of the third day after a vaginal plug was detected. The mice were then sacrificed 24 hours later and their uterine horns were collected for in situ hybridization analysis.
Whole embryo RNA in situ hybridization using digoxigenin-labelled RNA probes was performed essentially as previously described (Rancourt and Rancourt, 1997). The ISP1 probe comprised the 478 bp RT-PCR subclone in pBSKS^+. The ISP2 probe also comprised a 478 by RT-PCR subclone in pBSKS^+. The antisense probes were synthesized using T3 polymerase after plasmid linearization with EcoRI. […]

ISP1 transcripts = assay: RT-PCR of ISP1 transcripts in oligodeoxynucleotide-treated blastocysts; assay type: cell-based, mouse; conditions: after eight hours of culture
Protocol: The presence of ISP1 transcripts in embryos and placentas was monitored using RT-PCR. Total RNA (1 μg) was reverse transcribed and amplified using ISP1 specific primers (ISP1 for 5′-[…]-3′; SEQ ID NO:9 and ISP1rev 5′-GTCAAAGATGGCCACAGC-3+: SEQ ID NO: 10) and forty rounds of thermal cycling (1 min at 94° C., 2 min at 60° C., and 2 min at 72° C.). The RT-PCR amplification of GAPDH (as a control for mRNA loading) is described elsewhere (Arcellana-Panlilio and Schultz, 1993). The predicted 175 and 380 bp amplification products were separated on a 2% (w/v) agarose gel.
(§1) In antisense oligodeoxynucleotide studies, harvested blastocysts were placed in 0.001% (v/v) L-a-lysophosphatidylcholine for 60 seconds (Jones et al., 1997) and were transferred to microdrops equilibrated with 2.5 μM, 5 μM oligodeoxynucleotide or an equal volume of H2O (Behrendtsen et al., 1995). Two antisense oligodeoxynucleotides were designed against regions surrounding ISP1's initiation codon: AS1 (5′-[…]-3′; SEQ ID NO;13) situated upstream, AS2 (5′-[…]-3′; SEQ ID NO:14) lying downstream. A control oligodeoxynucleotide, SS1 (5′-[…]-3′; SEQ ID NO:15), represented the scrambled sense sequence surrounding the initiation codon. […] Blastocysts were scored at 20, 30, 40, and 60 hours for progress in hatching. […] Progress in outgrowth was monitored over a period of 5 days.

strypsin = assay: Histochemical staining of strypsin activity in blastocysts; assay type: cell-based, mouse; conditions: 24 hours of treatment
Protocol: Whole embryo RNA in situ hybridization using digoxigenin-labelled RNA probes was performed essentially as previously described (Rancourt and Rancourt, 1997). The ISP1 probe comprised the 478 bp RT-PCR subclone in pBSKS^+. The ISP2 probe also comprised a 478 by RT-PCR subclone in pBSKS^+. The antisense probes were synthesized using T3 polymerase after plasmid linearization with EcoRI. The sense probes were synthesized using T7 polymerase after plasmid linearization with BamHI. All experiments were performed with the sense RNA probe in parallel to detect non-specific hybridization. Histochemical staining of strypsin activity was performed essentially as outlined previously (Perona and Wassarman, 1986). Embryos were collected as early blastocysts in M2 medium, and were lightly fixed in 1.25% (w/v) glutaraldehyde in 0.25M sucrose, 50 mM sodium phosphate (pH7.5) for five min at 4° C. Following fixation, the blastocysts were placed in 50 mM sodium phosphate (pH7.5) containing the substrate N-α-benzoyl-DL-arginine β-napthylamide (0.56 mM; Sigma) and Fast Garnet GBC salt (1.86 mM; Sigma), were incubated for 5 min at room temperature and washed in 50 mM sodium phosphate (pH7.5).
as §1

Mouse Blastocysts = assay: In vitro blastocyst hatching after oligodeoxynucleotide administration; assay type: cell-based; conditions: for Percent Hatched over Time: 100 blastocysts; for effect on blastocyst hatching (in words): scored at 20, 30, 40 and 60 hours
Protocol: (§2) Morulae were collected from oviducts of superovulated, 2.5 day pregnant dams in M2 medium (Hogan et al., 1994). For hatching, morulae were cultured in microwells for approximately 24 hrs at 37° C., 5% CO2 in KSOMaa medium (Erbach et al., 1994). In embryo outgrowth, hatched blastocysts were cultured for an additional 48 hrs at 37° C., 5% CO2 in Dulbecco's Modified Eagle's Medium plus 5% (v/v) fetal bovine serum on microwells coated with extracellular matrix derived from 10% (v/v) Triton X-100-treated mouse embryo fibroblasts (Behrendtsen et al., 1995).
In antisense oligodeoxynucleotide studies, harvested blastocysts were placed in 0.001% (v/v) L-a-lysophosphatidylcholine for 60 seconds (Jones et al., 1997) and were transferred to microdrops equilibrated with 2.5 μM, 5 μM oligodeoxynucleotide or an equal volume of H2O (Behrendtsen et al., 1995). Two antisense oligodeoxynucleotides were designed against regions surrounding ISP1's initiation codon: AS1 (5′-[…]-3′; SEQ ID NO;13) situated upstream, AS2 (5′-[…]-3′; SEQ ID NO:14) lying downstream. A control oligodeoxynucleotide, SS1 (5′-[…]-3′; SEQ ID NO:15), represented the scrambled sense sequence surrounding the initiation codon. The oligodeoxynucleotides were designed using Oligo™ software and were synthesized and purified by Dr. Richard Pon, UC DNA Services (University of Calgary). Blastocysts were scored at 20, 30, 40, and 60 hours for progress in hatching. […] Following eight hours of treatment, some blastocysts were assayed for the presence of ISP1 transcripts using RT-PCR. Following 24 hours of treatment, some blastocysts were assayed for strypsin activity using histochemical staining. In outgrowth studies, blastocysts were allowed to hatch and then transferred to microdrops equilibrated with oligodeoxynucleotide or water. Progress in outgrowth was monitored over a period of 5 days.
A possible role for ISP1 in hatching was examined by determining whether ISP1 mRNA could be reduced in blastocysts by treatment with antisense oligodeoxynucleotides (Behrendtsen et al., 1995; Jones et al., 1997) and result in an alteration of the hatching process. Two antisense oligodeoxynucleotides were designed surrounding ISP1's initiation codon covering the region immediately upstream (AS1) and downstream (AS2). A control oligodeoxynucleotide (SS1) represented the scrambled sense sequence surrounding the initiation codon. Blastocysts were scored at 20, 30, 40, and 60 hours for progress in hatching.

hatched blastocysts = assay: Blastocyst outgrowth on extracellular matrix after hatching; assay type: cell-based, mouse; conditions: prehatched blastocysts in culture with oligodeoxynucleotide
Protocol: as §2, §1

| Compound | induction of ISP2 gene expression (ISP2 mRNA) | maintenance of ISP2 gene expression (ISP2 mRNA) | reduction of accumulation of ISP1 transcripts (ISP1 transcripts) | strypsin activity at the abembryonic pole (histochemical) (strypsin) | strypsin activity at the abembryonic pole (histochemical) (strypsin; listed as antisense oligodeoxynucleotide) | Percent Hatched over Time (Mouse Blastocysts; 2.5 µM, 20 hours) [%] | Percent Hatched over Time (Mouse Blastocysts; 2.5 µM, 30 hours) [%] | Percent Hatched over Time (Mouse Blastocysts; 2.5 µM, 40 hours) [%] | Percent Hatched over Time (Mouse Blastocysts; 2.5 µM, 60 hours) [%] | Percent Hatched over Time (Mouse Blastocysts; 5.0 µM, 20 hours) [%] | Percent Hatched over Time (Mouse Blastocysts; 5.0 µM, 30 hours) [%] | Percent Hatched over Time (Mouse Blastocysts; 5.0 µM, 40 hours) [%] | Percent Hatched over Time (Mouse Blastocysts; 5.0 µM, 60 hours) [%] | effect on blastocyst hatching (in words) (Mouse Blastocysts) | time to adhere to extracellular matrix (hatched blastocysts) [days] | ISP1 transcript levels (in words) (ISP1 transcripts; versus untreated controls) |
| --- | --- | --- | --- | --- | --- | --- | --- | --- | --- | --- | --- | --- | --- | --- | --- | --- |
| CC(=O)[C@H]1CC[C@H]2[C@@H]3CCC4=CC(=O)CC[C@]4(C)[C@H]3CC[C@]12C [progesterone] | could be induced | normal ISP2 expression was observed | – | – | – | – | – | – | – | – | – | – | – | – | – | – |
| AS1: antisense oligodeoxynucleotide upstream of ISP1's initiation codon, 5′-TCTAACTACCGTCTAACAACG-3′; SEQ ID NO:13 (DNA, backbone and methylation of C not given here) | – | – | at least 100 fold | reduced strypsin activity | strypsin activity was absent | 0 | 0 | 16 | 37 | 10 | 10 | 20 | 20 | interfered specifically with blastocyst hatching | 5 | – |
| AS2: antisense oligodeoxynucleotide downstream of ISP1's initiation codon, 5′-GAACTCTTCTAACTACCGTCT-3′; SEQ ID NO:14 (DNA, backbone and methylation of C not given here) | – | – | – | – | – | 0 | 20 | 35 | 40 | 0 | 5 | 35 | 45 | interfered specifically with blastocyst hatching | – | – |
| SS1: control oligodeoxynucleotide, scrambled sense sequence surrounding the ISP1 initiation codon, 5′-ACGGTAGTTAGAAGAGTTCT-3′; SEQ ID NO:15 (DNA, backbone and methylation of C not given here) [reference compound] | – | – | – | localized strypsin activity was observed | – | 10 | 16 | 58 | 90 | 10 | 39 | 61 | 77 | – | 2 | significant reduction was not observed |
| estrogen | did not have a stimulatory effect | not observed | – | – | – | – | – | – | – | – | – | – | – | – | – | – |
